Source: patent publication EP2508186A1, “Phenoxazinones or phenothiazones as inhibitors of amyloid formation” (Max-Delbrück-Centrum für Molekulare Medizin, priority 2011, dated 2012)
Read-outs that look alike come from different tables or passages of the source.

Columns and labels:
[1] = target: T1, A11-reactive amyloid oligomers (Homo sapiens, UniProt P05067); assay: Dot blot assay with conformation-specific antibody A11; assay type: biochemical; conditions: Aβ42 15 µM, 48 h at 37°C, 04 at 1:1 or 5:1 molar ratio
T1 construct: the amyloid-β 1-42 (Aβ42) peptide
T1 sequence (P05067 672-713 limits assumed): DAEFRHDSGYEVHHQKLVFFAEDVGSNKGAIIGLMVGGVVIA
Description: Finally, we examined the effect of 04 on potentially toxic amyloid oligomers that are recognized by the conformation-specific antibody A11 (Kayed, 2003). Soluble Aβ42 peptides were incubated in the presence and absence of 04 for 48 h at 37°C and the resulting aggregate species were analyzed by dot blot assays.

[2] = target: T2, Aβ42 aggregates (Homo sapiens, UniProt P05067); assay: Dot blot assays of Aβ42 aggregates with antibodies 4G8, 6E10 and B10; assay type: biochemical; conditions: Aβ42 15 µM
T2 construct: the amyloid-β 1-42 (Aβ42) peptide
T2 sequence (P05067 672-713 limits assumed): as above
Description: 2.2.6. 04-generated amyloid fibrils have altered surface properties. We next examined whether 04 treatment influences the morphology of mature amyloid fibrils. […] of chemical compound and the resulting aggregates were analyzed with dot blot assays using the monoclonal antibodies 6E10 and 4G8, which specifically recognize amino acids 4-9 and 18-22 in Aβ42 peptides, respectively (Kim, 1988).
To confirm the observation that 04 alters surface properties of Aβ42 aggregates, we also examined whether 04-generated Aβ42 aggregates can be detected with the conformation specific antibody B10, which preferentially recognizes mature, β-sheet-rich amyloid fibrils and protofibrils, while monomers and low molecular oligomers are less efficiently detected (Habicht, 2007).

[3] = system: hippocampal rat brain slices; assay: Hippocampal long-term potentiation (LTP) in brain slices, CA1 area; conditions: Aβ42 monomers and small oligomers added to slices, with 04; LTP evoked by high-frequency stimulation
Description: Finally, we investigated whether 04 treatment influences Aβ42-mediated impairment of hippocampal long-term potentiation (LTP) in rat brain slices (Wang, 2004; Walsh, 2002). A preparation of Aβ42 peptides containing monomers and small oligomers was added to hippocampal brain slices and LTP was measured in the CA1 area.

[4] = target: T3, Aβ42 oligomers (Homo sapiens, UniProt P05067); assay: Colorimetric dot blot binding assay on nitrocellulose membrane; conditions: for Kd: 04 0.4-200 µM, 15 min, read-out: apparent dissociation constant
T3 construct: the amyloid-β 1-42 (Aβ42) peptide
T3 sequence (P05067 672-713 limits assumed): as above
Description: 2.2.4. 04 converts small, unstable Aβ42 oligomers into larger SDS-stable protein aggregates. To examine whether 04 converts small Aβ42 oligomers into larger amyloid fibrils, we first tested whether the compound can bind to different types of preformed aggregate species. Peptide preparations highly enriched in Aβ42 monomers (Ehrnhoefer, 2008), spherical oligomers (Ma, 2006) or large amyloid fibrils (Ehrnhoefer, 2008) were produced and incubated with 04 for 15 minutes at room temperature. Then, samples were spotted onto a nitrocellulose membrane and after washing with buffer (non-denaturing conditions) 04 binding was examined. As 04 is a dye and blue in color its binding to amyloid aggregates can be detected colorimetrically (Fig. 3c).
Binding of 04 to Aβ42 oligomers was quantified colorimetrically (Fig. 5).

[5] = target: T4, Aβ42 (Homo sapiens, UniProt P05067); assay: Membrane filter retardation assay (FRA) of Aβ42 aggregation; assay type: biochemical
T4 construct: the amyloid-β 1-42 (Aβ42) peptide
T4 sequence (P05067 672-713 limits assumed): as above
Description: 2.1.1. Protein aggregation. For aggregation reactions, Aβ42 stock solution (1 mM in DMSO) was diluted in phosphate buffer (100 mM sodium phosphate, 10 mM NaCl, pH 7.4) to 15 µM and incubated in 1.5 ml Eppendorf tubes (Eppendorf, Germany) at 37°C. Generation of soluble Aβ42 oligomers was performed as described (Lambert, 1998). Aβ42 DMSO stock solutions were diluted in Ham's F12 medium without phenol red (Biosource) at a final peptide concentration of 100 µM, with or without test compounds. After brief vortexing, samples were incubated at 4-6°C for 24 h. […]
2.1.2. […] Aggregates retained on the filter membrane were detected using the 6E10 antibody (1 : 5.000) (Sigma, Deisenhofen, Germany), and secondary antibodies conjugated to either horseradish peroxidase or alkaline phosphatase (Promega, Germany). […] After 30 min incubation at 37°C with proteinase K, samples were denatured and analyzed by FRA.
2.2.1 Identification of small molecules that stimulate Aβ42 aggregation. In order to find chemical compounds that promote Aβ42 amyloidogenesis, a membrane filter retardation assay (FRA) was established that allows the identification of large, insoluble protein aggregates, while monomers and small, soluble oligomers are not detected (Fig. 1). […]

[6] = target: T4, Aβ42; assay: Thioflavin T (ThT) seeding assay with 04-generated Aβ42 fibrils; assay type: biochemical; conditions: fibrils produced with equimolar or 5-fold excess 04, sonicated seeds 3 % v/v added to Aβ42 15 µM monomers
From the text: We also investigated whether 04-generated Aβ42 fibrils are indeed seeding-competent structures. Amyloid fibrils were produced in vitro in the presence and absence of 04 and added as seeds to an excess of unpolymerized Aβ42 monomers. The formation of β-sheet-rich amyloid fibrils was then monitored over time using a Thioflavin T (ThT) dye binding assay (LeVine, 1999). […] Thus, the β-sheet-rich Aβ42 fibrils produced in the presence of 04 are seeding-competent structures that efficiently promote amyloid fibrillogenesis.

[7] = system: SH-SY5Y neuroblastoma cells; assay: MTT assay of Aβ42 toxicity; assay type: cell-based; conditions: Aβ42 5 µM, different concentrations of 04, 48 h; Aβ42 alone ∼50% inhibition
Description: 2.2.8. 04-mediated acceleration of amyloidogenesis reduces Aβ42 toxicity in cell-based assays and brain slices. To study whether O4-mediated conversion of aggregation intermediates into stable amyloid fibrils influences Aβ42 toxicity, SH-SY5Y neuroblastoma cells were incubated for 48 h with soluble Aβ42 peptides and different concentrations of 04. Viability of cells was examined using a 3-(4,5-dimethylthiazol-2yl)-2,5-diphenyltetrazolium bromide (MTT) assay (Hansen, 1989).

B10 antibody binding to Aβ42 aggregates ([2]; 48 h at 37°C, increasing concentrations of 04): reduced B10 binding ability
Kd ([4]; Aβ42 oligomers equivalent to monomer concentration 3 µM): 50 ± 2 µM
Kd ([4]; Aβ42 oligomers equivalent to monomer concentration 6 µM): 25 ± 1 µM
Kd ([4]; Aβ42 oligomers equivalent to monomer concentration 12 µM): 3.5 ± 0.1 µM
Hill coefficient n ([4]; cooperative binding model fitted to the oligomer binding data): 4
seeding competence of 04-generated Aβ42 fibrils (ThT fluorescence) [6]: accelerate amyloid polymerization
Structure (SMILES): O=c1cc2oc3cc(O)c(-c4ccc(O)cc4O)cc3nc-2cc1-c1ccc(O)cc1O [Compound 04, 2,8-bis-(2,4-dihydroxyphenyl)-7-hydroxy-phenoxazin-3-one]
A11-reactive oligomers [1]: detected in the absence but not in the presence of the chemical compound
recognition of Aβ42 aggregates by 4G8 antibody ([2]; 5 d at 37°C with or without 04, no such effect with 6E10): less efficiently recognized by the 4G8 antibody
Aβ42 oligomer block of LTP [3]: suppressed
04 staining of Aβ42 monomers, oligomers and fibrils ([4]; Aβ42 preparations 15 µM, 04 3, 15 and 75 µM, 15 min at room temperature, non-denaturing wash): readily stains oligomeric and fibrillar Aβ42 aggregates, while monomers were less efficiently detected
formation of SDS-stable insoluble Aβ42 aggregates ([5]; Aβ42 15 µM, equimolar or 5-fold molar excess of compound, detection with 6E10 antibody): promotes spontaneous assembly of Aβ42 insoluble aggregates in a concentration-dependent manner
proteinase K resistance of Aβ42 aggregates ([5]; aggregates generated 4 and 7 d at 37°C with or without 04 (15 µM), proteinase K 10-200 µg/ml, 30 min at 37°C): more proteinase K resistant than untreated aggregates
Aβ42-caused inhibition of MTT reduction [7]: suppressed in a concentration-dependent manner
